From publication PMC9873984, “Membrane cholesterol regulates inhibition and substrate transport by the glycine transporter, GlyT2” (Life Science Alliance, 2023) come the findings set out here.

One assay addresses T1, GlyT2 T512A mutant (Homo sapiens, UniProt Q9Y345, T512A).
T1 sequence (Q9Y345 1-797 T512A): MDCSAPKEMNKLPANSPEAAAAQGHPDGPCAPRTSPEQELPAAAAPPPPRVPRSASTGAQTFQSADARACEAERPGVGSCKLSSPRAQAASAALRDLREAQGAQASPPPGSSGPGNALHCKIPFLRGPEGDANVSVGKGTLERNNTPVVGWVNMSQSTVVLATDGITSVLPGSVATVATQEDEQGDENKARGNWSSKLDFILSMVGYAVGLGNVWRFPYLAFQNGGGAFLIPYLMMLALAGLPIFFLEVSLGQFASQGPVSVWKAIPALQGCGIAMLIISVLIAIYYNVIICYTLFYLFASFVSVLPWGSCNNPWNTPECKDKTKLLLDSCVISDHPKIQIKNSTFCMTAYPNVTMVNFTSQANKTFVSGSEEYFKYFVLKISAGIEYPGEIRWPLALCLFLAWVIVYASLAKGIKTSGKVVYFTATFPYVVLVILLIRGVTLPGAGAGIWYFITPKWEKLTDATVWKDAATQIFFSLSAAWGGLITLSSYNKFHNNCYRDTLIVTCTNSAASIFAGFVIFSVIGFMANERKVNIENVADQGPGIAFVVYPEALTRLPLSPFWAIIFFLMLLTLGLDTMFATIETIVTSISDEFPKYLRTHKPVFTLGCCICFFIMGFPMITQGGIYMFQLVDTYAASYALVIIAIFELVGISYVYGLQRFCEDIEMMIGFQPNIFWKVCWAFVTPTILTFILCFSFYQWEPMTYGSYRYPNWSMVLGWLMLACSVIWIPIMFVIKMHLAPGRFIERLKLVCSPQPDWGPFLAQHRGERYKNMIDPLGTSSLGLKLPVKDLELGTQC
An excerpt: (§1) GlyT2a (referred to herein as GlyT2) was subcloned into the plasmid oocyte transcription vector (pOTV) for expression in Xenopus laevis oocytes. Oligonucleotide primers incorporating desired mutations were synthesized by Sigma-Aldrich and used to generate point mutations in the GlyT2 cDNA/pOTV construct using the Q5 site-directed mutagenesis kit (New England Biolabs [Genesearch]). Amplified PCR products were transformed into chemically competent E. coli cells and purified using the GeneJET Plasmid Miniprep Kit (Thermo Fisher Scientific). Purified plasmid DNA was sequence-verified by the Australian Genome Research Facility. pOTV constructs were linearized with the restriction enzyme SpeI (New England Biolabs [Genesearch]), and RNA was transcribed by T7 RNA polymerase using the mMESSAGE mMACHINE T7 kit (Thermo Fisher Scientific).
(§2) The transport activity of GlyT2 is an electrogenic process as it couples the transport of glycine to the co-transport of 3 Na^+ and 1 Cl^− and thus can be measured using two-electrode voltage-clamp electrophysiology. Oocytes expressing GlyTs were voltage-clamped at −60 mV, and glycine-induced whole-cell currents were measured using a GeneClamp 500 amplifier (Axon Instruments), and a PowerLab 2/26 chart recorder (ADInstruments) and LabChart Software (ADInstruments).
(§3) Functionality of WT and mutant GlyT2 transporters was assessed by applying increasing concentrations of glycine (1–3,000 µM) in ND96 until a stable current was achieved. Glycine concentrations were applied individually and completely removed from the system via washing with recording buffer before proceeding to the next concentration. EC50 values for each transporter were determined by fitting concentration–response data to the modified Michaelis–Menten equation: I=([Gly].Imax)/(EC50+[Gly]), where I is current in nA, [Gly] is the concentration of glycine, Imax is the current generated by a maximal concentration of glycine, and EC50 is the concentration of glycine that generates a half-maximal current.

Another assay deals with GlyT2 L198A mutant (Homo sapiens, UniProt Q9Y345, L198A).
Sequence of GlyT2 L198A mutant (Q9Y345 whole entry L198A): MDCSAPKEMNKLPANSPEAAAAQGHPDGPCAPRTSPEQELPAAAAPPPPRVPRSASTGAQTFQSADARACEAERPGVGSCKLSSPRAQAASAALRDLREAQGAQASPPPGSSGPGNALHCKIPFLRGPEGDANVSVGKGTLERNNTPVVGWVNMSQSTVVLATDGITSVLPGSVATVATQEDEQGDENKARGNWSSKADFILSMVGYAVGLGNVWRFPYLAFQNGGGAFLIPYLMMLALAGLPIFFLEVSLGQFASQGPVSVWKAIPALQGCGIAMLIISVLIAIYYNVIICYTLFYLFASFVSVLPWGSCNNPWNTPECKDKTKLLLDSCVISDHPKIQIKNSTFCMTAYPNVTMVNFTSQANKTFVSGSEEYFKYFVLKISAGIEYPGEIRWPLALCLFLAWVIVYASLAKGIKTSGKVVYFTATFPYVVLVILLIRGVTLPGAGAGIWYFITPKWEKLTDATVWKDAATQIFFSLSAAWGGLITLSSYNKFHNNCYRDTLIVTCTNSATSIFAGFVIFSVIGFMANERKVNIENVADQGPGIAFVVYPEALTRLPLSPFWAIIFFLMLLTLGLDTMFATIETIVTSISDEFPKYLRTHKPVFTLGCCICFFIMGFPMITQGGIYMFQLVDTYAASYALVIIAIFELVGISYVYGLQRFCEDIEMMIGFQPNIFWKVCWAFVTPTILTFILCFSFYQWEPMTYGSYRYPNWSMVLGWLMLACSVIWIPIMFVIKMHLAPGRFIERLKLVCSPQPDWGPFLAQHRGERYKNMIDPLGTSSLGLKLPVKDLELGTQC
Text: as §1, §2, §3

The target in the next assay is T2, GlyT2 Y430F mutant (Homo sapiens, UniProt Q9Y345, Y430F).
T2 sequence (Q9Y345 1-797 Y430F): T1 sequence (Q9Y345 1-797 T512A) with Y430F, A512T
The settings on record: read-out: Glycine EC50; Y430F (TM5).
Text: as §1, §2, §3

Numbering of substitutions follows the chain as printed.

The term EC50 denotes the concentration needed to bring the measured effect to its halfway point. As for `NCC(=O)O` [Glycine, glycine], the “Reduction in apparent glycine affinity compared to WT” value at GlyT2 T512A mutant (T512A vs WT) was determined as 4.8 fold. Further, the 50% effective concentration (EC50) at GlyT2 T512A mutant (read-out: Glycine EC50, T512A (TM7)) came to 90 µM; on GlyT2 L198A mutant (read-out: Glycine EC50, L198A (TM1)) it was 28 µM; at GlyT2 Y430F mutant it was 12 µM. For the same compound, the “Increase of glycine EC50 compared to WT” value at GlyT2 L198A mutant (L198A vs WT) was determined as 1.5 fold.
